The record followed here is ChEMBL document CHEMBL3627642 (Bioorg Med Chem, 2015).

SMILES strings stand for the structures.

Data set [1] can be described thus: Inhibition of thrombin-induced rabbit platelet aggregation after 4 hrs in presence of rabbit liver microsomes. On the set-up: species or system Oryctolagus cuniculus.
Data set [2] has as its system Rattus norvegicus. In words: Antithrombotic activity in Sprague-Dawley rat venous thrombosis model assessed as reduction of thrombus weight administered intragastrically qd for 3 days measured 2 hrs after last dose. It counts as functional, organism-based.
Data set [3] deals with Mus musculus. In words: Toxicity in mouse assessed as bleeding time at 22 mg/kg, po administered 90 mins before surgery measured up to 15 mins by tail bleeding test. It counts as organism-based. The settings on record: in vivo.
Data set [4] concerns the target Prothrombin (Homo sapiens, UniProt P00734). In words: Inhibition of human thrombin using tosyl-glycyl-prolyl-arginine-4-nitranilide acetate as substrate preincubated for 10 mins by spectrophotometer analysis.

With `CCOC(=O)CCN(C(=O)c1ccc2c(c1)nc1n2CCNC1Cc1ccc(/C(N)=N/C(=O)OC(C)C)cc1)c1ccccc1` (stereo not given), the IC50 in data set [1] is 1540 nM. For the same compound, the Activity result is “Dose-dependent effect” in data set [2] and “Toxic” in data set [3].
For the compound `CCCCCCOC(=O)/N=C(\N)c1ccc(CC2NCCn3c2nc2cc(C(=O)N(CCC(=O)OCc4nc(C)c(C)nc4C)c4ccccc4)ccc23)cc1` (stereo not given), the IC50 in data set [1] worked out at 1210 nM. In addition, the figures for the Activity result in data set [2] and in data set [3] were “Dose-dependent effect” and “Toxic”, respectively.
`N=C(N)c1ccc(CC2NCCn3c2nc2cc(C(=O)N(CCC(=O)O)c4ccccc4)ccc23)cc1` (stereo not given) displayed an IC50 in data set [4] of 7.48 nM.
As to `CCCCCCOC(=O)/N=C(\N)c1ccc(CC2NCCn3c2nc2cc(C(=O)N(CCC(=O)OCc4nc(C)c(C)nc4C)c4ccccn4)ccc23)cc1` (stereo not given), the IC50 in data set [1] worked out at 640 nM. Further, the Activity result in data set [2] was “Dose-dependent effect”; in data set [3] it was “Non-toxic”.
Regarding `CCOC(=O)CCN(C(=O)c1ccc2c(c1)nc1n2CCNC1Cc1ccc(/C(N)=N/C(=O)OCC)cc1)c1ccccn1` (stereo not given), in data set [1], the IC50 was found to be 4090 nM.
As for `CCCCCOC(=O)/N=C(\N)c1ccc(CC2c3nc4cc(C(=O)N(CCC(=O)OCC)c5ccccn5)ccc4n3CCN2C(=O)OCCCCC)cc1` (stereo not given), the IC50 in data set [1] was found to be 17900 nM.
Turning to `CCCCCCOC(=O)NC(=N)c1ccc(NCc2nc3cc(C(=O)N(CCC(=O)OCC)c4ccccn4)ccc3n2C)cc1` [DABIGATRAN ETEXILATE], the IC50 in data set [1] was determined as 340 nM. Also, in data set [2], the Activity entry is “Dose-dependent effect”.
With `CCOC(=O)CCN(C(=O)c1ccc2c(c1)nc1n2CCNC1Cc1ccc(/C(N)=N/C(=O)OCC(C)C)cc1)c1ccccn1` (stereo not given), in data set [1], the IC50 was 840 nM.
With `CCOC(=O)CCN(C(=O)c1ccc2c(c1)nc1n2CCN(C(=O)OC(C)(C)C)C1Cc1ccc(/C(N)=N/C(=O)OC(C)(C)C)cc1)c1ccccn1` (stereo not given), the IC50 in data set [1] turned out to be 13800 nM.
`CCOC(=O)CCN(C(=O)c1ccc2c(c1)nc1n2CCN(C(=O)OCc2ccccc2)C1Cc1ccc(/C(N)=N/C(=O)OCc2ccccc2)cc1)c1ccccn1` (stereo not given): the IC50 in data set [1] stood at 9660 nM.
With `N=C(N)c1ccc(CC2NCCn3c2nc2cc(C(=O)N(CCC(=O)O)c4ccccn4)ccc23)cc1` (stereo not given), the IC50 in data set [1] is 600 nM; in data set [4], 9.2 nM.
For the compound `CCOC(=O)CCN(C(=O)c1ccc2c(c1)nc1n2CCN(C(=O)OCC(C)C)C1Cc1ccc(/C(N)=N/C(=O)OCC(C)C)cc1)c1ccccn1` (stereo not given), in data set [1], the IC50 was 8720 nM.
As to `CCOC(=O)CCN(C(=O)c1ccc2c(c1)nc1n2CCN(C(=O)OC(C)C)C1Cc1ccc(/C(N)=N/C(=O)OC(C)C)cc1)c1ccccc1` (stereo not given), the IC50 in data set [1] worked out at 860 nM. For the same compound, in data set [2], the Activity entry is “Dose-dependent effect”.
For `CCCCCCOC(=O)/N=C(\N)c1ccc(CC2NCCn3c2nc2cc(C(=O)N(CCC(=O)OCC)c4ccccc4)ccc23)cc1` (stereo not given), the IC50 in data set [1] came out at 1440 nM. Also, the Activity result was “Dose-dependent effect” in data set [2] and “Non-toxic” in data set [3].
Turning to `CCOC(=O)CCN(C(=O)c1ccc2c(c1)nc1n2CCNC1Cc1ccc(/C(N)=N/C(=O)OC(C)C)cc1)c1ccccn1` (stereo not given), in data set [1], the IC50 came out at 870 nM.
Same read-out and setting: for `CCOC(=O)CCN(C(=O)c1ccc2c(c1)nc1n2CCNC1Cc1ccc(/C(N)=N/C(=O)OC(C)(C)C)cc1)c1ccccn1` (stereo not given) the value was 3320 nM.
Consider `CCOC(=O)CCN(C(=O)c1ccc2c(c1)nc1n2CCNC1Cc1ccc(/C(N)=N/C(=O)OCc2ccccc2)cc1)c1ccccn1` (stereo not given), for which the IC50 in data set [1] was determined as 5960 nM.
Take `CCCCCCOC(=O)/N=C(\N)c1ccc(CC2c3nc4cc(C(=O)N(CCC(=O)OCC)c5ccccn5)ccc4n3CCN2C(=O)OCCCCCC)cc1` (stereo not given): the IC50 in data set [1] worked out at 750 nM. Besides, the figures for the Activity entry in data set [2] and in data set [3] were “Dose-dependent effect” and “Non-toxic”, respectively.
For the compound `CCOC(=O)CCN(C(=O)c1ccc2c(c1)nc1n2CCN(C(=O)OCC)C1Cc1ccc(/C(N)=N/C(=O)OCC)cc1)c1ccccn1` (stereo not given), the IC50 in data set [1] was 3420 nM.
On to `CCCCCOC(=O)/N=C(\N)c1ccc(CC2NCCn3c2nc2cc(C(=O)N(CCC(=O)OCC)c4ccccn4)ccc23)cc1` (stereo not given), for which the IC50 in data set [1] worked out at 27200 nM.
In the case of `CCCCCCOC(=O)/N=C(\N)c1ccc(CC2NCCn3c2nc2cc(C(=O)N(CCC(=O)OCC)c4ccccn4)ccc23)cc1` (stereo not given), the IC50 in data set [1] was found to be 730 nM. The Activity entry is “Dose-dependent effect” in data set [2] and “Toxic” in data set [3].
Regarding `CCOC(=O)CCN(C(=O)c1ccc2c(c1)nc1n2CCN(C(=O)OC(C)C)C1Cc1ccc(/C(N)=N/C(=O)OC(C)C)cc1)c1ccccn1` (stereo not given), the IC50 in data set [1] turned out to be 1520 nM.
On to `CCCCCCOC(=O)/N=C(\N)c1ccc(CC2c3nc4cc(C(=O)N(CCC(=O)OCC)c5ccccc5)ccc4n3CCN2C(=O)OCCCCCC)cc1` (stereo not given), for which the IC50 in data set [1] came to 910 nM. The Activity result is “Dose-dependent effect” in data set [2] and “Non-toxic” in data set [3].
